In patent publication US10722484B2, “Methods of cancer treatment” (K-Gen, Inc., priority 2016, dated 2020):
“Also recorded” adds a separate entry of the source.

Tested on: A549 lung cancer cell line
Assay: Combination viability/proliferation assays (384-well IC50 ratio, 96-well MacSynergy II)
Type: cell-based
Conditions: for effect in combination with the PKC activator compounds in inhibiting the growth of A549 cells: PKC activator compounds (K101A, K101E, K102); for Ratio ([…] DMSO IC50/combination IC50) / concentration range in which the antagonistic effect was detected / Combination in A549: K101A (synergism/antagonism) / Combination in A549: K101E (synergism/antagonism) / Combination in A549: K102 (synergism/antagonism): A549; for Ratio ([…] DMSO IC50/combination IC50): NC: no change; for concentration range in which the antagonistic effect was detected: with PKC activator compounds (FIG. 10A, 10B), trametinib full range tested, erlotinib lower half of range tested; for Combination in A549: K101A (synergism/antagonism): agent assayed in combination with K101A; for Combination in A549: K101A (synergism/antagonism) / Combination in A549: K102 (synergism/antagonism): * 2-3 concentrations, # full concentration ranges; for Combination in A549: K101E (synergism/antagonism): agent assayed in combination with K101E; for Combination in A549: K102 (synergism/antagonism): agent assayed in combination with K102
Protocol: A 96-well MacSynergy II format for combination test was also used. […] The analysis was done with the SQRT(Data) scale and the four parameter Hill curve was fitted using XLfit5.1 (the MacSynergy II Excel Spreadsheet) for the inhibition data. Synergy (positive number) or Antagonism (negative number) volumes were calculated. […] Three-dimensional MacSynergy II graphs were generated where positive values indicated synergism and negative values indicated antagonism.

[1] = in combination with 0.0002 μM K102
[2] = in combination with 0.002 μM K102
[3] = in combination with 0.005 μM K101A
[4] = in combination with 0.02 μM K102
[5] = in combination with 0.05 μM K101A
[6] = in combination with 0.5 μM K101A, ratio >2 synergistic, <0.5 antagonistic

Ratio ([…] DMSO IC50/combination IC50) [1]	Ratio ([…] DMSO IC50/combination IC50) [2]	Ratio ([…] DMSO IC50/combination IC50) [3]	Ratio ([…] DMSO IC50/combination IC50) [4]	Ratio ([…] DMSO IC50/combination IC50) [5]	Ratio ([…] DMSO IC50/combination IC50) [6]	Ratio ([…] DMSO IC50/combination IC50) (in combination with […] K101E)	SMILES	effect in combination with K101A or K102 in inhibiting the growth of A549 cells	effect in combination with the PKC activator compounds in inhibiting the growth of A549 cells	concentration range in which the antagonistic effect was detected [µM]	Combination in A549: K101A (synergism/antagonism)	Combination in A549: K101E (synergism/antagonism)	Combination in A549: K102 (synergism/antagonism)
–	–	–	–	–	–	–	O=C1[O][Pt]2([NH][C@@H]3CCCC[C@H]3[NH]2)[O]C1=O [Oxaliplatin]	synergy	–	–	–	–	–
–	–	–	–	–	–	–	CS(=O)(=O)CCNCc1ccc(-c2ccc3ncnc(Nc4ccc(OCc5cccc(F)c5)c(Cl)c4)c3c2)o1 [Lapatinib]	–	no or insignificant antagonistic effect; also recorded: insignificant synergism or antagonism	–	–	–	–
0.72	0.80	1.36	0.44	1.10	0.50	–	CC(=O)Nc1cccc(-n2c(=O)n(C3CC3)c(=O)c3c(Nc4ccc(I)cc4F)n(C)c(=O)c(C)c32)c1 [Trametinib]	–	–	0.003 to 0.2	–	–	–
–	–	–	–	–	–	–	C#Cc1cccc(Nc2ncnc3cc(OCCOC)c(OCCOC)cc23)c1 [Erlotinib]	–	Moderate antagonistic effect	0.3 to 2.5	–	–	–
–	–	–	–	–	–	–	CN[C@@H]1C[C@H]2O[C@@](C)([C@@H]1OC)n1c3ccccc3c3c4c(c5c6ccccc6n2c5c31)C(=O)NC4 [STS, staurosporine]	–	synergistic effects	–	Synergism	Synergism	Synergism
–	>2	–	>2	>2	>2	>2	CO[C@H]1C[C@@H]2CC[C@@H](C)[C@@](O)(O2)C(=O)C(=O)N2CCCC[C@H]2C(=O)O[C@H]([C@H](C)C[C@@H]2CC[C@@H](OCCO)[C@H](OC)C2)CC(=O)[C@H](C)/C=C(\C)[C@@H](O)[C@@H](OC)C(=O)[C@H](C)C[C@H](C)/C=C/C=C/C=C/1C [Everolimus]	–	strong synergy	–	Synergism	Synergism.	Synergism
–	–	–	–	–	–	–	CC(C)C[C@H](NC(=O)[C@H](CCc1ccccc1)NC(=O)CN1CCOCC1)C(=O)N[C@@H](Cc1ccccc1)C(=O)N[C@@H](CC(C)C)C(=O)[C@@]1(C)CO1 [Carfilzomib]	–	insignificant synergism or antagonism	–	None	–	None
–	–	–	–	–	–	–	Cc1cc(-c2ncc(CC(=O)Nc3ccc(-c4cnccn4)cn3)cc2C)ccn1 [LGK-974, 2-[5-methyl-6-(2-methylpyridin-4-yl)pyridin-3-yl]-N-(5-pyrazin-2-ylpyridin-2-yl)acetamide]	–	–	–	Synergism (minor)	–	Synergism (minor)
0.72	0.76	0.80	0.69	0.91	0.97	–	Nc1ccn([C@@H]2O[C@H](CO)[C@@H](O)C2(F)F)c(=O)n1 [Gemcitabine]	–	insignificant synergism or antagonism	–	None	None	None
0.86	1.24	0.94	2.36	1.21	2.43	–	Nc1cc(C(F)(F)F)c(-c2cc(N3CCOCC3)nc(N3CCOCC3)n2)cn1 [BKM-120, 5-[2,6-Di(4-morpholinyl)-4-pyrimidinyl]-4-(trifluoromethyl)-2-pyridinamine]	–	strong synergy	–	Synergism (strong)	None	Synergism (moderate)
